The source made the active and inactive calls. The rule behind the calls is not given here.
Legend:
[1] = test system: CT26; test: Antitumor activity against CT26 cells injected in BALB/c syngenic mouse model assessed as tumor growth inhibition at 1.5 mg/kg, iv measured after 17 days; assay type: functional; settings: CT26, 408 h, time 17 day, read-out: TGI
[2] = biological target: Cytochrome P450 2C9 (Homo sapiens, UniProt P11712); test: Inhibition of CYP2C9 in human liver microsomes tolbutamide as cocktail probe substrate preincubated for 5 mins followed by NADPH addition and measured after 30 mins by HPLC-MS/MS analysis; assay type: ADME, Microsome
Cytochrome P450 2C9, sequence (P11712 whole entry): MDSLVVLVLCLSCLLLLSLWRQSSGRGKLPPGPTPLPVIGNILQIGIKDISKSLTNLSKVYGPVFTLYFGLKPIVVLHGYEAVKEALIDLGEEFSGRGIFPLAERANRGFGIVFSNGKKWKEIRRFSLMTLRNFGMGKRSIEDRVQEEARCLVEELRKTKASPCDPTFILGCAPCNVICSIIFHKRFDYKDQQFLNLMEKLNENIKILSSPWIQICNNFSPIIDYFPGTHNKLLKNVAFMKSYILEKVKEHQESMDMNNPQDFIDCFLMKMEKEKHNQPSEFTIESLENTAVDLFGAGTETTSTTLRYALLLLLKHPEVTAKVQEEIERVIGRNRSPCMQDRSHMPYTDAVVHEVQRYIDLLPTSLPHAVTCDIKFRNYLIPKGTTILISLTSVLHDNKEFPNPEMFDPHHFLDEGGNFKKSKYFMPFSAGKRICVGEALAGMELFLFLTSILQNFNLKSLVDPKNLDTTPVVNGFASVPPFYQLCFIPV

[3] = test system: THP-1; test: Upregulation of IFIT3 in human THP-1 cells at 100 nM measured after 6 to 18 hrs by RT-PCR analysis; assay type: functional, cell-based; settings: time 6-18 hrs
[4] = biological target: T1, Stimulator of interferon genes protein (Homo sapiens, UniProt Q86WV6); settings: THP1-Dual, filed as activator, dose 50.0 µM, time 24.0 hrs
T1 sequence (Q86WV6 whole entry): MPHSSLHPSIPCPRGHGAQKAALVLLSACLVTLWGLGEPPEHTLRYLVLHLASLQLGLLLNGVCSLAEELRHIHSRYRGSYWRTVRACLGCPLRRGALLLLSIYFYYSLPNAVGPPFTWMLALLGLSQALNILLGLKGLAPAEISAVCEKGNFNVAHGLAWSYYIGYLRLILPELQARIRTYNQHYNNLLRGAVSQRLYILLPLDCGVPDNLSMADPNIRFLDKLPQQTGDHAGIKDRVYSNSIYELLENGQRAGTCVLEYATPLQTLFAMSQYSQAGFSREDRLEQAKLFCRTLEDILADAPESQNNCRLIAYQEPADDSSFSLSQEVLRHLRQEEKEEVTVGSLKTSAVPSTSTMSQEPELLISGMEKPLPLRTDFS

[5] = biological target: T1, Stimulator of interferon genes protein; test: Activation of STING dependent immune response in wild type human THP1-Dual cells assessed as induction of IFN-beta secretion at 1.28 to 3.2 nM measured after 24 hrs by ELISA; assay type: cell-based; settings: filed as activator, dose 1.28-3.2 nM
[6] = Stability in human liver microsome assessed as parent compound remaining at 1 uM measured after 30 mins in the presence of NADPH by HPLC-MS/MS analysis; assay type: ADME; settings: liver microsomes, read-out: Stability
[7] = test system: THP-1; test: Upregulation of IRF7 in human THP-1 cells at 100 nM measured after 6 to 18 hrs by RT-PCR analysis; assay type: functional, cell-based; settings: time 6-18 hrs
[8] = biological target: T2, Stimulator of interferon genes protein (Mus musculus) (UniProt Q3TBT3); test: Activation of STING mediated immune response in mouse RAW264.7 cells assessed as induction of IP-10 secretion measured after 24 hrs by ELISA; assay type: cell-based; settings: filed as activator, dose 0.32-5000 nM, DDE = dose-dependent effect
T2 sequence (whole entry): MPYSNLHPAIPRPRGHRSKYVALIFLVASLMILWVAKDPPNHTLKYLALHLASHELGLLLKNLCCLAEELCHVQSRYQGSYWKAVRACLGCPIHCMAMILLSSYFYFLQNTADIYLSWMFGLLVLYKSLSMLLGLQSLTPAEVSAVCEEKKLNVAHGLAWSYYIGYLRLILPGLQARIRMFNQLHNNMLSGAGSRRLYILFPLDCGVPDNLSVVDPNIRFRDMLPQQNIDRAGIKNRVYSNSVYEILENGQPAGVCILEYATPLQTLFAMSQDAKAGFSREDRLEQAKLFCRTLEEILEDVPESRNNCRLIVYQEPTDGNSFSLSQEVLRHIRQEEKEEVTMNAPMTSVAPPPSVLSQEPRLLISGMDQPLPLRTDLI

[9] = test system: CT26; test: Antitumor activity against CT26 cells injected in BALB/c syngenic mouse model assessed as reduction in tumor growth at 0.015 to 1.5 mg/kg, iv measured every 2 to 3 days for 17 days; assay type: functional, organism-based; settings: dose 0.015-1.5 mg/kg, time 17.0 day
[10] = biological target: T2, Stimulator of interferon genes protein (Mus musculus); test: Binding affinity to STING in mouse RAW264.7 assessed as thermal stabilization at 48 to 55 degC at 100 nM incubated for 4 hrs by western blotting based CETSA assay; assay type: cell-based; settings: filed as activator
[11] = biological target: T3, Cytochrome P450 1A2 (Homo sapiens, UniProt P05177); test: Inhibition of CYP1A2 in human liver microsomes using phenacetin as cocktail probe substrate preincubated for 5 mins followed by NADPH addition and measured after 30 mins by HPLC-MS/MS analysis; assay type: ADME, Microsome
T3 sequence (P05177 whole entry): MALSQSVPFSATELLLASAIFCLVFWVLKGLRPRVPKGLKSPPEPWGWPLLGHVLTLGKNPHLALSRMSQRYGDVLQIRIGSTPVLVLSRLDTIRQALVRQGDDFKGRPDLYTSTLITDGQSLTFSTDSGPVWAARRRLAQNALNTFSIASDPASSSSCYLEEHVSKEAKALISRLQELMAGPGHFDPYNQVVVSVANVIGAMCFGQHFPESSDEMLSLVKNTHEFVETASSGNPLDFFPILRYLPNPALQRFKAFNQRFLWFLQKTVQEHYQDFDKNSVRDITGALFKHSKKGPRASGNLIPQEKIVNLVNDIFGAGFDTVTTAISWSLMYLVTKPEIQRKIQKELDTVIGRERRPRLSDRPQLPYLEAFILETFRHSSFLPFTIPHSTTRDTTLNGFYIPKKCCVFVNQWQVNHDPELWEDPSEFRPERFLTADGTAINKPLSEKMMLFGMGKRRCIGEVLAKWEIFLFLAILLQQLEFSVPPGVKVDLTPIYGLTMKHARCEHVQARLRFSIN

[12] = biological target: T1, Stimulator of interferon genes protein; test: Activation of STING pathway in human THP1-cells assessed as increase in IRF3 phosphorylation at 2 nM incubated 6 hrs by Western blotting analysis; assay type: cell-based; settings: THP-1, filed as activator
[13] = test system: Mus musculus; test: Upregulation of IFN-beta in BALB/c mouse serum at 1.5 mg/kg, iv measured after 4 hrs by ELISA; assay type: functional, organism-based
[14] = Toxicity in BALB/c syngenic mouse bearing CT26 cells assessed as effect on body weight at 0.015 to 1.5 mg/kg, iv measured every 2 to 3 days for 17 days; assay type: organism-based; settings: in vivo, 408 h, dose 0.015-1.5 mg/kg, time 17 day
[15] = Toxicity in BALB/c mouse xenografted with mouse CT26 cells assessed as effect on body weight at 1.5 mg/kg, iv measured after 8 days; assay type: organism-based; settings: in vivo, 192 h, time 8 day
[16] = biological target: Cytochrome P450 3A4 (Homo sapiens, UniProt P08684); test: Inhibition of CYP3A4 in human liver microsomes using […] as cocktail probe substrate preincubated for 5 mins followed by NADPH addition and measured after 30 mins by HPLC-MS/MS analysis; assay type: ADME, Microsome
Cytochrome P450 3A4, sequence (P08684 whole entry): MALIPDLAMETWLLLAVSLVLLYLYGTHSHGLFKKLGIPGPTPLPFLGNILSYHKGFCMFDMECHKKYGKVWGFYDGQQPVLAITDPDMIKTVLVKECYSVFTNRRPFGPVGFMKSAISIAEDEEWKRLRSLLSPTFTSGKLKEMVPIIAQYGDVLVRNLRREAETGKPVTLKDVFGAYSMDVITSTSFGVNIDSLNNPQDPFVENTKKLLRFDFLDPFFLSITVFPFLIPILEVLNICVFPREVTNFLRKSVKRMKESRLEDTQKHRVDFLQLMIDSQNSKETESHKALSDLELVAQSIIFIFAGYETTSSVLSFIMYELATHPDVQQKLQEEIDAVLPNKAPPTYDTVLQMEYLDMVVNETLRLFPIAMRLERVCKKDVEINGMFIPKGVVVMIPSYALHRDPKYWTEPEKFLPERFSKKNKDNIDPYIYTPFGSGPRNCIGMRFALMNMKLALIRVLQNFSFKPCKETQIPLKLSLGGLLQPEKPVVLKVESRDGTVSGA

[17] = biological target: T2, Stimulator of interferon genes protein (Mus musculus); test: Activation of STING mediated immune response in mouse RAW264.7 cells assessed as induction of IFNbeta secretion measured after 24 hrs by ELISA; assay type: cell-based; settings: filed as activator, dose 0.32-5000 nM, DDE = dose-dependent effect
[18] = test system: THP-1; test: Upregulation of IFNB in human THP-1 cells at 100 nM measured after 6 hrs by RT-PCR analysis; assay type: functional, cell-based
[19] = biological target: T1, Stimulator of interferon genes protein; test: Binding affinity to recombinant human His-tagged STING by measuring fluorescent signals in the presence of d2 labelled STING wild type ligand by HTRF based microplate reader analysis
[20] = Volume of distribution at steady state in BALB/c mouse at 3 mg/kg, iv by LC-MS/MS analysis; assay type: ADME, organism-based; settings: in vivo, read-out: Vdss
[21] = Stability in human plasma assessed as parent compound remaining at 5 uM measured after 4 hrs by HPLC-MS/MS analysis; assay type: ADME, cell-free; settings: read-out: Stability
[22] = biological target: Cytochrome P450 2D6 (Homo sapiens, UniProt P10635); test: Inhibition of CYP2D6 in human liver microsomes using dextromethorphan as cocktail probe substrate preincubated for 5 mins followed by NADPH addition and meaured after 30 mins by HPLC-MS/MS analysis; assay type: ADME, Microsome
Cytochrome P450 2D6, sequence (P10635 whole entry): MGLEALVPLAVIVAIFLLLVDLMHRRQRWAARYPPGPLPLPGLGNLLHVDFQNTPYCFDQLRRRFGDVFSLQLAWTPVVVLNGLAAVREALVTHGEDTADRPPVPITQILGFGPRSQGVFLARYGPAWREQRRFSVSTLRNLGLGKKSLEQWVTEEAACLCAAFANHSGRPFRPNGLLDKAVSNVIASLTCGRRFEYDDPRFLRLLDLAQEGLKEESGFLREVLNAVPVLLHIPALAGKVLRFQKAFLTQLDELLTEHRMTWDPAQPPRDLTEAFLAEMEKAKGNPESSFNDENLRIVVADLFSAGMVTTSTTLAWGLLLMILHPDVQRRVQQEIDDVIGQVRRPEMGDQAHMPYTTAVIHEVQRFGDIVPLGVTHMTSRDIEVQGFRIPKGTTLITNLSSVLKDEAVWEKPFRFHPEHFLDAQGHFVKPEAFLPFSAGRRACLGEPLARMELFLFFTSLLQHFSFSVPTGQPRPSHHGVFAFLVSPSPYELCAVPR

- IC50 [2]: > 100 µM
- RLU [4]: 102
- Activity [5]: Active
- remaining at 0.5 h, 1 µM [6]: 11.2%
- Activity [8]: Dde
- Activity [10]: Active
- IC50 [11]: > 100 µM
- Activity [12]: Active
- IC50 [16]: 4.2 µM
- Activity [17]: Dde
- IC50 [19]: 0.0623 nM
- Vd [20]: 17.7 L/kg
- remaining at 4 h, 5 µM [21]: > 99%
- IC50 [22]: > 100 µM
Structure (SMILES): CCn1nc(C)cc1C(=O)Nc1nc2cc(C(N)=O)cc(OC)c2n1C/C=C/Cn1c(NC(=O)c2cc(C)nn2CC)nc2cc(C(N)=O)cc(OCCCNC(=O)OC(C)(C)C)c21
- inhibition in vivo at 1.5 mg/kg [1]: 57%
- Activity [3]: Active
- Activity [7]: Active
- Activity [9]: Active
- Activity [13]: Active
- Activity [14]: Non-Toxic
- Activity [15]: Non-Toxic
- Activity [18]: Active

— ChEMBL document CHEMBL5154810, “Development of Potent Immune Modulators Targeting Stimulator of Interferon Genes Receptor” (J Med Chem, 2022)
